According to the supplement of paper PMC13380429:

How the values were obtained:
Settings in all cases: 72 h
[1] = tested on: U2OS; assay: cell viability relative to DMSO; higher = less toxic
[2] = tested on: Caco-2; assay: as above
[3] = tested on: Vero E6; assay: as above
[4] = tested on: HepG2; assay: as above
[5] = tested on: Calu-3; assay: as above
[6] = tested on: U2OS; assay: drug sensitivity score (DSS) for viability; higher = more toxic; extreme values may be limits of the assay
[7] = tested on: Caco-2; assay: as above
[8] = tested on: Vero E6; assay: as above
[9] = tested on: HepG2; assay: as above
[10] = tested on: Calu-3; assay: as above
[11] = tested on: U2OS; assay: relative viability EC50 (midpoint between 100% and the lowest measured viability); higher = less toxic
[12] = tested on: Caco-2; assay: as above
[13] = tested on: Vero E6; assay: as above
[14] = tested on: HepG2; assay: as above
[15] = tested on: Calu-3; assay: as above

Structure (SMILES) | cell viability ([1]; 1 nM) [%] | cell viability ([1]; 10 nM) [%] | cell viability ([1]; 100 nM) [%] | cell viability ([1]; 1000 nM) [%] | cell viability ([1]; 10000 nM) [%] | cell viability ([2]; 1 nM) [%] | cell viability ([2]; 10 nM) [%] | cell viability ([2]; 100 nM) [%] | cell viability ([2]; 1000 nM) [%] | cell viability ([2]; 10000 nM) [%] | cell viability ([3]; 1 nM) [%] | cell viability ([3]; 10 nM) [%] | cell viability ([3]; 100 nM) [%] | cell viability ([3]; 1000 nM) [%] | cell viability ([3]; 10000 nM) [%] | cell viability ([4]; 1 nM) [%] | cell viability ([4]; 10 nM) [%] | cell viability ([4]; 100 nM) [%] | cell viability ([4]; 1000 nM) [%] | cell viability ([4]; 10000 nM) [%] | cell viability ([5]; 1 nM) [%] | cell viability ([5]; 10 nM) [%] | cell viability ([5]; 100 nM) [%] | cell viability ([5]; 1000 nM) [%] | cell viability ([5]; 10000 nM) [%] | drug sensitivity score [6] | drug sensitivity score [7] | drug sensitivity score [8] | drug sensitivity score [9] | drug sensitivity score [10] | relative viability EC50 [11] [µM] | relative viability EC50 [12] [µM] | relative viability EC50 [13] [µM] | relative viability EC50 [14] [µM] | relative viability EC50 [15] [µM]
O=C(NNc1ccccc1)c1ccncc1 [plurisin-1] | 103 | 96.3 | 101 | 99.9 | 99.6 | 106 | 106 | 105 | 91.6 | 101 | 102 | 108 | 106 | 96.7 | 95.4 | 110 | 109 | 104 | 114 | 77.8 | 97.9 | 96.6 | 93.2 | 103 | 106 | 0 | 0 | 0 | 0.4 | 0 | > 10 | > 10 | > 10 | > 10 | > 10
COc1ccc2cc(-c3cc(-c4cc(Cl)cc(Cl)c4)nn3[C@@H](C)c3ccc(C(=O)NCCC(=O)O)cc3)ccc2c1 [MK-0893] | 95.8 | 98.2 | 93.9 | 96.8 | 89.6 | 87.9 | 93.7 | 95.8 | 90.1 | 87.6 | 97.7 | 102 | 98.8 | 92.3 | 84.5 | 88.5 | 106 | 86.8 | 93.8 | 90 | 110 | 94.7 | 97.7 | 96.2 | 91.3 | 0 | 0 | 0.6 | 0 | 0 | > 10 | > 10 | > 10 | > 10 | > 10
N[C@H](C(=O)O)c1cc(O)no1 [ibotenic-acid] | 97.8 | 97.5 | 96.6 | 102 | 92.4 | 92.9 | 94.2 | 93.6 | 97.2 | 96.5 | 102 | 101 | 99.1 | 99.4 | 100 | 91.3 | 104 | 95.1 | 93.3 | 93.9 | 93 | 93.7 | 105 | 93.6 | 94 | 0 | 0 | 0 | 0 | 0 | > 10 | > 10 | > 10 | > 10 | > 10
